Reference: publication PMC4505863 (ACS Chemical Neuroscience, 2014)

Assays:
5-ht1e = 5-ht1e (Homo sapiens, UniProt P28566); test: PDSP screening affinity 5-ht1e; assay type: binding
5-HT1A = target: T1, 5-HT1A (Homo sapiens, UniProt P08908); test: PDSP screening affinity 5-HT1A; assay type: binding; settings: 5-HT1A affinity
T1 sequence (P08908 1-422): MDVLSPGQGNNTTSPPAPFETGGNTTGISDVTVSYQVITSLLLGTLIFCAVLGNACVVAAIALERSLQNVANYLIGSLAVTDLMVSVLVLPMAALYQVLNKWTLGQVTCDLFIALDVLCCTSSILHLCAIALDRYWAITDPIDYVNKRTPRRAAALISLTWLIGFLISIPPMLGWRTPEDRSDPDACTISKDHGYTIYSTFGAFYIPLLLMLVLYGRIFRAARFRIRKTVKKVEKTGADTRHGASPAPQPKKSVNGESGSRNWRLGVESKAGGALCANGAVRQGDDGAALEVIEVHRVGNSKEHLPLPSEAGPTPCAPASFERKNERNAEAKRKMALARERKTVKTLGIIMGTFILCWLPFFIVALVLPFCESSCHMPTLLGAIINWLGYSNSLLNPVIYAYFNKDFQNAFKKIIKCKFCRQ

r5-HT2A = r5-HT2A (Rattus norvegicus, UniProt P14842); test: Ca2+ mobilization assay; assay type: cell-based; settings: for EC50: r5-HT2A EC50, Ca2+ mobilization; for Emax: read-out: r5-HT2A Emax, percentage of the maximum response to 5-HT
5-HT3 = target: T2, 5-HT3 (Homo sapiens, UniProt P46098); test: PDSP screening affinity 5-HT3; assay type: binding
T2 sequence (P46098 24-478): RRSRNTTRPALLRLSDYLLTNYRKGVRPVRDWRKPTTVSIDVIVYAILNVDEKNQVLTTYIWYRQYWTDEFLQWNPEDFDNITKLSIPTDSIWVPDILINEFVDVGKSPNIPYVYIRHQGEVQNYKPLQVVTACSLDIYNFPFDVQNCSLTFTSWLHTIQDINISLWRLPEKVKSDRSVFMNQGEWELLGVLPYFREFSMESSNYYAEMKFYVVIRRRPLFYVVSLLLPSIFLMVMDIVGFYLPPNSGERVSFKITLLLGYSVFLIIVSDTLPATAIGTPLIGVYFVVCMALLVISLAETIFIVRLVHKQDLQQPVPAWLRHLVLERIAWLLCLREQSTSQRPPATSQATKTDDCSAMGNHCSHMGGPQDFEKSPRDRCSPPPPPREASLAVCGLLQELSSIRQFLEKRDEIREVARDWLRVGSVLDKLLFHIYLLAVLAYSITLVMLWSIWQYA

Male C57BL/6J mice = test: Mouse head twitch response; settings: for max counts: HTR counts; for ED50: Mus musculus, sc, read-out: ED50 mg/kg (95% CI), mouse head twitch; for magnitude of peak effect × vehicle / maximally effective dose: mouse head twitch
5-ht5a = 5-ht5a (Homo sapiens, UniProt P47898); test: PDSP screening affinity 5-ht5a; assay type: binding; settings: 5-ht5a affinity
r5-HT2C = target: T3, r5-HT2C (Rattus norvegicus, UniProt P08909); test: Ca2+ mobilization assay; assay type: cell-based; settings: for Emax: read-out: r5-HT2C Emax
T3 sequence (P08909 33-460): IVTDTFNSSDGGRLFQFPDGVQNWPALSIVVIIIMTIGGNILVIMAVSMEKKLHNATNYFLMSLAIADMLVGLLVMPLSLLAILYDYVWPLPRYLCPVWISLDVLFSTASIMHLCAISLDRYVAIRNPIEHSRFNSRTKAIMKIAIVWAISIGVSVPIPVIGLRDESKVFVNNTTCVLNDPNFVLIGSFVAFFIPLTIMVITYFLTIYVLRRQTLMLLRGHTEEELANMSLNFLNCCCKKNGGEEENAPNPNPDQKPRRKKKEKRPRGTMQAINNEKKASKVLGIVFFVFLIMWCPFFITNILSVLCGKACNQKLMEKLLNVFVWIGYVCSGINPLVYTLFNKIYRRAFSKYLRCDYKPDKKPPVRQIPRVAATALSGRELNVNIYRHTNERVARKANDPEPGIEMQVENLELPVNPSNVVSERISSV

5-HT1D = 5-HT1D (Homo sapiens, UniProt P28221); test: PDSP screening affinity 5-HT1D; assay type: binding
5-HT2A receptor [1] = target: T4, 5-HT2A receptor (Homo sapiens, UniProt P28223); test: h5-HT2A affinity, agonist radioligand [125I]DOI; assay type: binding
5-HT6 = 5-HT6 (Homo sapiens, UniProt P50406); test: PDSP screening affinity 5-HT6; assay type: binding
h5-HT2C = target: T5, h5-HT2C (Homo sapiens, UniProt P28335); test: Ca2+ mobilization assay; assay type: cell-based; settings: for Emax: HEK293, read-out: h5HT2C Emax; for EC50: h5HT2C EC50, Ca2+ mobilization
T5 sequence (P28335 33-458): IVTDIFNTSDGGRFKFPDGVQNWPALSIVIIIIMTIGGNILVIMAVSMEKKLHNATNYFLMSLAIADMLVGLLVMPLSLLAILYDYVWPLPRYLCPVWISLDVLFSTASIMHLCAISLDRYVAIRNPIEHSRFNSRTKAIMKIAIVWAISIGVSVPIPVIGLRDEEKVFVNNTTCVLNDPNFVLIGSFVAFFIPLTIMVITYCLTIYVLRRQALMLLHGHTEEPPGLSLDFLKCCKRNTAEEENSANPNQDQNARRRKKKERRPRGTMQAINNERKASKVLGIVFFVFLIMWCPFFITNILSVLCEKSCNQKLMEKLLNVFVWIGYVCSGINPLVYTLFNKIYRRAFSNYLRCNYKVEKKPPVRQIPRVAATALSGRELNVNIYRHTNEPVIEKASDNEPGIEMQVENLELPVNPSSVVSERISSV

5-HT2B = 5-HT2B (Homo sapiens, UniProt P41595); test: PDSP screening affinity 5-HT2B; assay type: binding
h5-HT2A = h5-HT2A (Homo sapiens, UniProt P28223); test: Ca2+ mobilization assay; assay type: cell-based; settings: for Emax: HEK293, read-out: h5-HT2A Emax, percentage of the maximum response to 5-HT
5-HT2A receptor [2] = target: T4, 5-HT2A receptor; test: h5-HT2A affinity, antagonist radioligand [3H]ketanserin; assay type: binding
5-HT1B = 5-HT1B (Homo sapiens, UniProt P28222); test: PDSP screening affinity 5-HT1B; assay type: binding; settings: 5-HT1B affinity
human 5-HT2C receptor [3] = target: T6, human 5-HT2C receptor (Homo sapiens, UniProt P28335); test: h5-HT2C affinity, agonist radioligand [125I]DOI; assay type: binding
T6 sequence (P28335 33-458): T5 sequence (P28335 33-458)

h5-HT2B = h5-HT2B (Homo sapiens, UniProt P41595); test: Ca2+ mobilization assay; assay type: cell-based; settings: for Emax: HEK293, read-out: h5-HT2B Emax
5-HT7 = 5-HT7 (Homo sapiens, UniProt P34969); test: PDSP screening affinity 5-HT7; assay type: binding
human 5-HT2C receptor [4] = target: T6, human 5-HT2C receptor; test: h5-HT2C affinity, antagonist radioligand [3H]mesulergine; assay type: binding
[5] = r5-HT2C EC50, Ca2+ mobilization
[6] = h5-HT2B EC50, Ca2+ mobilization

Sequence of r5-HT2A (P14842 whole entry): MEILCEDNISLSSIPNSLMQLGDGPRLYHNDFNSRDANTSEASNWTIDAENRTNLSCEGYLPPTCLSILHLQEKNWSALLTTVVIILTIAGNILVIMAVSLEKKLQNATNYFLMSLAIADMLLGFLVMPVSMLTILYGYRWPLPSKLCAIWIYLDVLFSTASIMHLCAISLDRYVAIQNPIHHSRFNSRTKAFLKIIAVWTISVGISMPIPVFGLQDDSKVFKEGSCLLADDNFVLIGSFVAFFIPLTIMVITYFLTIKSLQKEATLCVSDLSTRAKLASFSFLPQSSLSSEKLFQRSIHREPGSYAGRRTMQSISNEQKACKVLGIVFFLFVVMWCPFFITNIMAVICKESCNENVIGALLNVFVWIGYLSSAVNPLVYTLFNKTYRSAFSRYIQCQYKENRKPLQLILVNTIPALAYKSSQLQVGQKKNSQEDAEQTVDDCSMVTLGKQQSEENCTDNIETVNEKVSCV
Sequence of h5-HT2A (P28223 whole entry): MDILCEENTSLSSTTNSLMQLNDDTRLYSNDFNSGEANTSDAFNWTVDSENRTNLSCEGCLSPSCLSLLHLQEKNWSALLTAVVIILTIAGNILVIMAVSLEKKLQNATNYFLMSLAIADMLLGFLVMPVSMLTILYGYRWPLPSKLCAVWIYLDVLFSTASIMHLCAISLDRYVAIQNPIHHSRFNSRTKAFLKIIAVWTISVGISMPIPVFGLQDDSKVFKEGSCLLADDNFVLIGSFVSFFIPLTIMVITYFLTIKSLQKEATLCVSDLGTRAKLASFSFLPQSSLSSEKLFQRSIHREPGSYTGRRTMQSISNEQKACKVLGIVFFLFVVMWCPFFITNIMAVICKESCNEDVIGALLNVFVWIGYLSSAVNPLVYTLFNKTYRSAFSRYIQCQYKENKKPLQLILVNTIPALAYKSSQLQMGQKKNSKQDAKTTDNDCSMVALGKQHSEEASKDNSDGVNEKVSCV
T4 sequence (P28223 whole entry): as above
Sequence of 5-HT6 (P50406 whole entry): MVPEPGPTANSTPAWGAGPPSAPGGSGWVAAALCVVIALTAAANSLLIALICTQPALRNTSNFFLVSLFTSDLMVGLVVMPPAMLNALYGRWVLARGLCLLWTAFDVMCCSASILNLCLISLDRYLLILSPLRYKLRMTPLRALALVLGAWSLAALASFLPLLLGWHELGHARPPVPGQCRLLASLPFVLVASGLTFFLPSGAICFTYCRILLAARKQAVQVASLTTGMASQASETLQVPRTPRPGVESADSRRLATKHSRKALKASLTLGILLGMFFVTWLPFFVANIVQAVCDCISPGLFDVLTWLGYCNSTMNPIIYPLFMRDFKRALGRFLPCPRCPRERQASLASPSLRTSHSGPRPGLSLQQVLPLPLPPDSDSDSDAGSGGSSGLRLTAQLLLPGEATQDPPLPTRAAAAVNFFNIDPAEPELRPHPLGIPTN
Sequence of h5-HT2B (P41595 whole entry): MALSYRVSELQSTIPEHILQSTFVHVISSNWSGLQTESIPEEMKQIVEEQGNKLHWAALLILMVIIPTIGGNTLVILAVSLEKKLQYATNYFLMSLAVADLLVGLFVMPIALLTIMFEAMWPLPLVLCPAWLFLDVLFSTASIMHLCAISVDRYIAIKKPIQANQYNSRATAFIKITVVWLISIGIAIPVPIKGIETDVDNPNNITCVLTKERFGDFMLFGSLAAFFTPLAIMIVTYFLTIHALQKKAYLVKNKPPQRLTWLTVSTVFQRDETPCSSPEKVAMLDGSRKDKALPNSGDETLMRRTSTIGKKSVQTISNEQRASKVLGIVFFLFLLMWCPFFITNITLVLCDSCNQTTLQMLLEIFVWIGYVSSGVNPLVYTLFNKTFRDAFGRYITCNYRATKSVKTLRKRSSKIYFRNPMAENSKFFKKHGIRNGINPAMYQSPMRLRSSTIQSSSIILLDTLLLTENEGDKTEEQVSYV
Sequence of 5-HT2B (P41595 whole entry): as above
Sequence of 5-HT7 (P34969 whole entry): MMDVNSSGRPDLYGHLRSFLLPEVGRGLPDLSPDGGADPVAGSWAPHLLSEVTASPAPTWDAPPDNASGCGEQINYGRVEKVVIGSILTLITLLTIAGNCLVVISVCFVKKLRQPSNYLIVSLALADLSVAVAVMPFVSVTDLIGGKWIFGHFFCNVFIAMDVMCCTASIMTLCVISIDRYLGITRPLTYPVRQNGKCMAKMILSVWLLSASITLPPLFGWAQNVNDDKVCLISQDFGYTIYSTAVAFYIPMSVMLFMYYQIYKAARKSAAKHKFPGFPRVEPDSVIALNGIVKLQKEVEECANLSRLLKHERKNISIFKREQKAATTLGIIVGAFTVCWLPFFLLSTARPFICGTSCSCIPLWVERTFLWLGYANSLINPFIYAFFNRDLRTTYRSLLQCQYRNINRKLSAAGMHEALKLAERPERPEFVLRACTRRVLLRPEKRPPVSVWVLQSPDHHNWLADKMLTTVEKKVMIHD
Sequence of 5-ht1e (P28566 whole entry): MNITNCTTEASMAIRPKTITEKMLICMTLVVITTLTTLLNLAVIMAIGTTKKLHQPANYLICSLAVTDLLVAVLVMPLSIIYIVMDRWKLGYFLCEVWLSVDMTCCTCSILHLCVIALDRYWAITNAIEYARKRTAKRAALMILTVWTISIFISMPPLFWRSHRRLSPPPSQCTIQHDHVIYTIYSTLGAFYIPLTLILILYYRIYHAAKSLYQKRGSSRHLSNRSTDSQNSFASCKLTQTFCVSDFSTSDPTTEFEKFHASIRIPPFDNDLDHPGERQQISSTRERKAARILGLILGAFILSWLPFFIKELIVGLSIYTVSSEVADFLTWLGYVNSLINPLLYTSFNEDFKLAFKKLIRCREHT
Sequence of 5-ht5a (P47898 whole entry): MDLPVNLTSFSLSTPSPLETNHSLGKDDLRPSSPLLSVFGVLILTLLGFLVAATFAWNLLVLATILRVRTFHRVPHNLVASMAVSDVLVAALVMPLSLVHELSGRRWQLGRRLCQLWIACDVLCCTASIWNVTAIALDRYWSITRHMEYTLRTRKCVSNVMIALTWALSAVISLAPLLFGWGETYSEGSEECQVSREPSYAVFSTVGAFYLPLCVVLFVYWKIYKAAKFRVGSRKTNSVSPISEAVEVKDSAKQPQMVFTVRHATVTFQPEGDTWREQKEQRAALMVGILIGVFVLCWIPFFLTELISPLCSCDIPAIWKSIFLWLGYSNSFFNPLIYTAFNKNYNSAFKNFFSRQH
Sequence of 5-HT1B (P28222 whole entry): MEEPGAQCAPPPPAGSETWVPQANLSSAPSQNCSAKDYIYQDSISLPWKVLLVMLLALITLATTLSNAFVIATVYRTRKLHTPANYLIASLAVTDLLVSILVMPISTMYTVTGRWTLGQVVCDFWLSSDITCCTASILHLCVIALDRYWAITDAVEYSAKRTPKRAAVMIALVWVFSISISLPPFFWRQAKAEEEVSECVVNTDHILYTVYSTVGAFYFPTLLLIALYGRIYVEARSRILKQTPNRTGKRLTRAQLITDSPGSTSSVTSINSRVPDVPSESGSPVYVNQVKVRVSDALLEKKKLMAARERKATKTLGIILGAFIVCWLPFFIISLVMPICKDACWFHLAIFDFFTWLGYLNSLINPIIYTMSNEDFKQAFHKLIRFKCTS
Sequence of 5-HT1D (P28221 whole entry): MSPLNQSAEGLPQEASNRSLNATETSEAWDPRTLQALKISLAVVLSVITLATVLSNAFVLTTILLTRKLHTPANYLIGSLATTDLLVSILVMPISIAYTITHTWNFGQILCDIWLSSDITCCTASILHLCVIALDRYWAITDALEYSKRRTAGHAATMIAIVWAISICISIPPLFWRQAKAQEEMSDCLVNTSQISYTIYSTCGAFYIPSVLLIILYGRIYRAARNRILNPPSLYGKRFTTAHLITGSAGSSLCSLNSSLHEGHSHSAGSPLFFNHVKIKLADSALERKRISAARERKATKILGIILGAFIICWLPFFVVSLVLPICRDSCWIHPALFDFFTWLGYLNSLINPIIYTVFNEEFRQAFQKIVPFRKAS

Compound | Ki (5-ht1e) [nM] | Ki (5-HT1A) [nM] | EC50 (r5-HT2A) [nM] | Emax (r5-HT2A) [%] | Ki (5-HT3) [nM] | Ki (5-ht5a) [nM] | EC50 (r5-HT2C; [5]) [nM] | Emax (r5-HT2C) [%] | Ki (5-HT1D) [nM] | Ki (5-HT2A receptor [1]) [nM] | Ki (5-HT6; 5-HT6 affinity) [nM] | Emax (h5-HT2C) [%] | EC50 (h5-HT2C) [nM] | Ki (5-HT2B; 5-HT2B pKi ± SEM) [nM] | EC50 (h5-HT2A) [nM] | Emax (h5-HT2A) [%] | Ki (5-HT2A receptor [2]) [nM] | Ki (5-HT1B) [nM] | Ki (human 5-HT2C receptor [3]) [nM] | Ki (5-HT7; 5-HT7 affinity) [nM] | other results
COc1ccc2[nH]cc(CCNCc3cccc(Br)c3)c2c1 [Compound 5e, N-(3-Bromobenzyl)-2-(5-methoxy-1H-indol-3-yl)ethan-1-amine] | > 10000 | 155 | 130 | 65.5 ± 0.8 | > 10000 | 612 | 422 | 112 ± 3 | 381 | 1.48 | 45 | 64 ± 8 | 321 | 3.55 | 13 | 73.8 ± 1.1 | 6.76 | 6430 | 5.62 | 116 | max counts (Male C57BL/6J mice; SC): 14.2; ED50 (Male C57BL/6J mice): 5.18 mg/kg; activity in the HTR assay (active / inactive) (Male C57BL/6J mice; SC, doses up to 30 mg/kg): active; magnitude of peak effect × vehicle (Male C57BL/6J mice; SC): 4.4 × vehicle; maximally effective dose (Male C57BL/6J mice; SC): 30 mg/kg; EC50 (r5-HT2C; r5-HT2C pEC50 ± SEM, Ca2+ mobilization): 417 nM; Ki (5-HT6; 5-HT6 pKi ± SEM): 45.7 nM; Ki (5-HT2B; 5-HT2B affinity): 3.6 nM; Emax (h5-HT2B): 20 ± 2%; EC50 (h5-HT2B; [6]): 29 nM; Ki (5-HT7; 5-HT7 pKi ± SEM): 117 nM
COc1ccc2[nH]cc(CCNCc3cccc(F)c3)c2c1 [Compound 5g, N-(3-Fluorobenzyl)-2-(5-methoxy-1H-indol-3-yl)ethan-1-amine] | > 10000 | 295 | 80 | 69.1 ± 1.3 | > 10000 | 2450 | 46 | 100 ± 3 | 319 | – | 59 | 83 ± 5 | 192 | 21.9 | 10 | 89.3 ± 1.1 | 21.4 | 2670 | 8.71 | 242 | max counts (Male C57BL/6J mice; SC): 14.5; ED50 (Male C57BL/6J mice): 3.33 mg/kg; magnitude of peak effect × vehicle (Male C57BL/6J mice; SC): 7.3 × vehicle; maximally effective dose (Male C57BL/6J mice; SC): 10 mg/kg; Emax (h5-HT2B): 37 ± 1%; EC50 (h5-HT2B; h5-HT2B pEC50 ± SEM, Ca2+ mobilization, NA = not active, Emax ≤ 15%): 38 nM; Ki (human 5-HT2C receptor [4]): 47.9 nM
COc1ccc2[nH]cc(CCNCc3cccc(SC)c3)c2c1 [Compound 5l, N-(3-Methylthiobenzyl)-2-(5-methoxy-1H-indol-3-yl)ethan-1-amine] | > 10000 | 127 | 120 | 32 ± 0.7 | > 10000 | 841 | 205 | 101 ± 2 | 659 | 3.09 | 9.7 | 60 ± 4 | 283 | 4.07 | 32 | 46.9 ± 0.8 | 8.91 | > 10000 | 2.09 | 136 | Ki (human 5-HT2C receptor [4]): 13.2 nM
COc1ccc2[nH]cc(CCNCc3cccc(C(F)(F)F)c3)c2c1 [Compound 5k, N-(3-Trifluoromethylbenzyl)-2-(5-methoxy-1H-indol-3-yl)ethan-1-amine] | > 10000 | 240 | 770 | 69.6 ± 1.4 | > 10000 | 3090 | 162 | 104 ± 2 | 278 | 2.95 | 87 | 75 ± 5 | 512 | 27.5 | 87 | 75.5 ± 1.2 | 28.2 | > 10000 | 14.8 | 262 | Emax (h5-HT2B): 51 ± 2%; EC50 (h5-HT2B; [6]): 107 nM; Ki (human 5-HT2C receptor [4]): 102 nM
